Assay: in vitro
Conditions: human, hela cells, % viability

SMILES | viability at 28.5 h, 10 µM
NS(=O)(=O)c1ccc(S(=O)(=O)N2CCN(C/C=C/c3ccccc3)CC2)cc1 [CBK266723C] | 95.8%
OCCNc1nc(Nc2ccc(Br)cc2)nc2ccccc12 [CBK266724C] | 87.7%
Cc1cc(C)nc(SCc2nc(N)nc(-c3ccccc3O)n2)n1 [CBK266725] | 94.4%
Cc1cc(C)n(C(=O)c2cccc(S(=O)(=O)N3CCCCCC3)c2)n1 [CBK266727] | 102%
COc1ccc(Nc2nc(N)nc(CSc3nncn3C)n2)cc1 [CBK266730] | 88.9%
O=C1CC(SCc2nc3ccccc3[nH]2)C(=O)N1c1cccc(Cl)c1 (stereo not drawn) [CBK266731] | 94.5%
O=C(CSc1nnc(CN2CCOCC2)n1-c1ccccc1)N1CCc2ccccc21 [CBK266733] | 92.7%
CCN1CCN(C(=O)CN(Cc2ccccc2)S(C)(=O)=O)CC1 [CBK266735] | 94.6%
Brc1ccc2nc(NCc3ccccn3)nc(-c3ccccc3)c2c1 [CBK266736] | 89.3%
O=C(CCn1cnc2ccccc2c1=O)Nc1ccc(Cl)c(Cl)c1 [CBK266738] | 89.6%
Cc1nnc(SCc2cc(=O)[nH]c(Nc3nc(C)c4cccc(C)c4n3)n2)s1 [CBK266740] | 92.9%
COC(=O)c1ccccc1NC(=O)Cn1cncc1-c1ccc([N+](=O)[O-])cc1 [CBK266741] | 91.9%
N#C/C(=C(/O)c1ccc(-c2ccc([N+](=O)[O-])cc2Cl)o1)c1nc(-c2ccc(F)cc2)cs1 [CBK266742] | 91%
O=C(O)c1cccc(-n2nnnc2SCc2ccccn2)c1 [CBK266744] | 115%
COc1ccccc1Nc1nc(N)nc(CSc2nc3ccccc3s2)n1 [CBK266747] | 95.7%
COc1ccc(NC(=O)CS(=O)(=O)Cc2ccccc2)c([N+](=O)[O-])c1 [CBK266748] | 93.1%
Nc1cc(N)nc(SCC(=O)Nc2ccc(Oc3ccccc3)cc2)n1 [CBK266749] | 95%
COc1ccc(OC(C)C(=O)Nc2cc3oc4ccccc4c3cc2OC)cc1 (stereo not drawn) [CBK266751] | 100%
COc1nc(OCCNS(=O)(=O)c2ccc(C)cc2)nc(N(C)C)n1 [CBK266752] | 117%
Cc1cc(C)c2nc(C(F)(F)F)nc(NCCCN3CCOCC3)c2c1 [CBK266753] | 86.4%
N#C/C(=C/c1ccc(-c2cc(C(=O)O)cc(C(=O)O)c2)o1)c1nc2ccccc2s1 [CBK266754] | 103%

SMILES | viability at 28.5 h, 10 µM
CC(=O)Nc1ccc(NC(=O)CN(C2CCCCC2)S(C)(=O)=O)cc1 [CBK266755] | 93.3%
CCn1c2ccccc2c2cc(NC(=O)CN(C)S(=O)(=O)c3ccc(C)cc3)ccc21 [CBK266756] | 92.8%
Cc1c(NC(=O)CSc2nnc(-c3cccc([N+](=O)[O-])c3)n2C)c(=O)n(-c2ccccc2)n1C [CBK266757] | 95.4%
Cc1ccc(-c2nnc(N3CCN(S(=O)(=O)c4ccc(Cl)cc4)CC3)c3ccccc23)cc1 [CBK266759] | 96.1%
O=C(O)c1cc(NC(=O)c2ccc3c(c2)C(=O)N(Cc2cccnc2)C3=O)cc(C(=O)O)c1 [CBK266761] | 108%
N#Cc1c(NC(=O)c2cccc(S(=O)(=O)Nc3ccc(C(=O)O)cc3)c2)sc2c1CCCC2 [CBK266762] | 106%
N#C/C(=C\c1ccc(OCC(=O)c2ccccc2)cc1)c1nc(-c2cccs2)cs1 [CBK266765] | 95.3%
CN(C)S(=O)(=O)c1cc(C(=O)Nc2ccc(O)cc2)c(Cl)cc1Cl [CBK266767] | 95.4%
N#C/C(=C\c1ccc(OCC(=O)c2ccc(F)cc2)cc1)c1nc(-c2cc3ccccc3oc2=O)cs1 [CBK266769] | 90.6%
O=C(Nc1cc([N+](=O)[O-])ccc1O)c1ccc2c(c1)C(=O)N(Cc1cccnc1)C2=O [CBK266770] | 92.7%
CC1CCN(S(=O)(=O)c2cccc(C(=O)NNC(=O)c3cccc([N+](=O)[O-])c3)c2)CC1 [CBK266774] | 98%
O=C(Nc1ccc(Br)cc1C(=O)O)c1ccc2c(c1)C(=O)N(Cc1cccnc1)C2=O [CBK266776] | 96.7%
O=C(CSCc1ccc(Cl)cc1Cl)Nc1ccc(Oc2ccc3c(c2)C(=O)NC3=O)cc1 [CBK266779] | 92.2%
O=C(OCc1ccc(S(=O)(=O)c2ccccc2)cc1)c1cc(O)nc2ccccc12 [CBK266782] | 93.1%
Cc1cc(Cl)c(S(=O)(=O)Nc2ccon2)cc1OCC(=O)NC1CCCCC1 [CBK266785] | 93.5%
O=C(CSc1ccccc1)Nc1cccc(NC(=O)c2cccs2)c1 [CBK266788] | 96.7%
Cc1ccc(-c2nnc(-c3cccc(NC(=O)CSCc4ccc(Cl)cc4)c3)o2)cc1 [CBK266789] | 92.3%
Cc1ccc(NC(=O)COc2ccccc2)c(NC(=O)c2ccccc2I)c1 [CBK266793] | 98.2%
CCC(C(=O)Nc1cc(OC)c(OC)cc1C(=O)O)c1ccccc1 (stereo not drawn) [CBK266794] | 106%
Cc1nnc2sc(-c3ccc(NC(=S)NC(=O)c4cc5ccccc5o4)cc3)nn12 [CBK266795] | 100%
CC(Oc1ccc(Br)cc1)C(=O)O/N=C(\N)c1ccncc1 (stereo not drawn) [CBK266797] | 93%

— article PMC12040169 (PLOS Biology, 2025)
